Data on one compound can be found in PMC6094173, “Releasable and traceless PEGylation of arginine-rich antimicrobial peptides” (Chemical Science, 2017).

Square brackets hold non-standard residues; d marks the D form. Peptide text beside a SMILES is read from it. * marks the point of attachment. FITC = O=C1OC2(c3ccc(O)cc3Oc3cc(O)ccc32)c2ccc(NC(=S)*)cc21; Ahx = NCCCCCC(=O)O

Series [1] relates to E. coli B. The series is classed as cell-based, Escherichia coli B. The note with it: 16 h. As to the method:
(§1) In order to validate that the PEGylated AMPs are resistant to proteolysis, [3 + 2a] (2 kDa) was incubated in ∼90% human serum (final concentration) spiked with 0.01 wt% trypsin for up to 24 h. To prevent de-PEGylation during this incubation period (i.e., to test the protease-resistance of the conjugate rather than the released AMP (known to be degradable; vide infra)), the concentration of [3 + 2a] was maintained high, and a small excess of free 2a was kept in solution. Based on Fig. 2 and 4, these conditions promote the forward PEGylation reaction and disfavor de-PEGylation. Following the incubation period (1 h, 6 h, or 24 h), serum proteins and trypsin were removed to stop proteolysis, and the integrity of the AMP 3 within the conjugate was evaluated via its anti-proliferative effect on E. coli. […]
reaction by HPLC using the fluorescence detector. Kinetics were monitored in triplicate. […]
To determine peptide content, a known mass of conjugate was dissolved in 500 µL D2O, and the absorbance of the solution at 452 nm (the FITC dye on the peptide) was compared to a standard curve obtained with the pure peptide. Then, to deter mine the number of moles of mPEG within this solution, a small amount (5 µL) of dimethyl sulfoxide was quantitatively added to a known volume of the D2O solution, and a 1H NMR spectrum recorded. […]

The subject of series [2] is trypsin. In words: Resistance to proteolysis in human serum spiked with trypsin, read out by antibacterial activity. The class given is in vitro ADME. The note with it: ∼90% human serum with 0.01 wt% trypsin, r.t.; read-out anti-proliferative effect on E. coli. As to the method: as §1
[…] 5 h t o obtain mid-logarithmic phase organisms (10^9 cfu· mL –1). […] After this period, proteins were immediately removed by addition of 1.5 mL acetonitrile, sedimentation of precipitate by centrifugation, quantitative recovery of the supernatant, and drying by freeze-drying (FreeZone 4.5, Labconco). […] After addition of analyte to the w el l, the mi cr op lat e was in cub at ed at 37 °C for 16 h with shaking, and growth inhibition was determined by measuring absorbance at 620 nm using a Cytation 5 multi- mode microplate reader (BioTek Inc., VT). […]

For `CC[C@@H](C)[C@@H](NC(=O)[C@H](CCCNC(=N)N)NC(=O)[C@H](CCC(N)=O)NC(=O)[C@@H](NC(=O)[C@H](NC(=O)[C@H](CCCNC(=N)N)NC(=O)[C@H](CCCCN)NC(=O)[C@H](Cc1ccccc1)NC(=O)CNC(=O)CCCCCNC(=S)Nc1ccc2c(c1)C(=O)OC21c2ccc(O)cc2Oc2cc(O)ccc21)[C@H](C)CC)C(C)C)C(=O)N[C@@H](CCCCN)C(=O)N[C@@H](CC(=O)O)C(=O)N[C@@H](Cc1ccccc1)C(=O)N[C@H](CC(C)C)C(=O)N[C@@H](CCCNC(=N)N)C(=O)N[C@@H](CC(N)=O)C(=O)N[C@@H](CC(C)C)C(=O)N[C@H](C(N)=O)C(C)C` [compound 3] ({FITC-Ahx}-GFKR[dI]VQR[dI]KDF[dL]RNLV-NH2), in series [1], the IC50 was found to be 8 ± 5 µM. For the same compound, the “Time to loss of antimicrobial properties in trypsin-spiked serum” value in series [2] is “less than 6 h”.

As a reminder, the IC50 is the concentration that gives 50% inhibition. Higher therefore signals lower potency.
